The term MIC denotes the lowest concentration that inhibits growth of the organism. In general, IC50 refers to the concentration needed to halve the response being measured.

Converted amounts (≈) assume the structure as drawn. Read-outs that look alike come from different tables or passages of the source.

Consider ten compounds from patent US20150174144A1, “TETRACYCLINE COMPOUNDS FOR TREATING NEURODEGENERATIVE DISORDERS” (PARATEK PHARMACEUTICALS, INC., priority 2012, published 2015).

One data set deals with MS. The settings on record: cited from earlier work; for % lesion reduction: gadolinium-enhancing MRI lesions.
A further data set has as its system E. coli. The experiment in a line: Antibacterial activity, E. coli MIC. The note with it: Escherichia coli; Table 8. Type of data set: cell-based.
In data set [1] the test system is animal models of MS and neuroprotection. Briefly: Accepted animal models of MS and neuroprotection (Table 2). Set-up: concentration or dose not given beside the values. The note with it: in vivo.
A short description of data set [2]: Alkylperoxy radical scavenging assay (AIPH, AE-Trolox oxidation). The note with it: for IC50: 5 mM AIPH, 37° C., 8 minutes, read-out: IC50, inhibition of AE-Trolox oxidation (alkylperoxy radical scavenging); for Percent Trolox Activity / Trolox Equivalents: relative to Trolox. The protocol:
In a separate assay, alkylperoxy radicals were generated in vitro using the radical generator AIPH (2,2′-azobis-[2-(2-imidazolyn-2-yl)-propane) and the ability of tetracyclines to scavenge these radicals was determined. […] Also, the ability of Compound 1 and minocycline to specifically scavenge peroxynitrite-carbonate radicals was determined.
In this study, alkylperoxy radicals were generated in vitro using the radical generator AIPH (2,2′-azobis-[2-(2-imidazolyn-2-yl)-propane) and the ability of tetracyclines, such as Compound 1, to scavenge these radicals was determined.
Trolox is a known scavenger of peroxyradicals. Structurally similar to a-tocopherol, Trolox reacts with peroxyradicals via a known mechanism with linear kinetics under excess oxygen conditions. In the presence of a competing antioxidant compound, the rate of Trolox oxidation will change based on the relative rate of oxidation and concentration of the competing antioxidant compound (Huang, et al., J. Agric. Food Chem. 2005, 25, 1841-1856). By measuring the effect of antioxidant concentration on the rate of degradation of Trolox, the relative antioxidant capacity of a compound can be determined. This principle is the basis of the widely used antioxidant capacity assay, ORAC (Huang, et al., J. Agric. Food Chem. 2002, 50, 1815-1821). Unlike ORAC which uses a fluorescent dye indicator, the assay described here directly measures the oxidation of the Trolox derivative, 2-aminoethyl-Trolox (AE-Trolox). This method eliminates interference of the fluorescent dye reaction by tetracycline compounds.
To the first column of a 96-well PCR plate (0.2 mL volume) was added 160 μL of TCWS. One well of the first column would equal one IC50 determination. […] To the remaining wells in columns 2-11 was added 80 μL of AET-WS. Using a multichannel pipettor, column 1 was serially diluted in 2-fold dilutions by removing 80 μL from column 1 and transferring with mixing to column 2. Column 2 was then diluted to column 3 and so on until column 11 where 80 μL of the diluted mixture was removed and discarded. Four wells of row 12 were designated as the 0 test compound/0 AIPH control to which 80 μL of AET-WS was added. One well of row 12 per test compound was designated as the 0 test compound control to which 80 μL of the AET-WS was added.
(§1) The plate was covered and incubated for 5 minutes at 37° C. upon which the reaction was initiated by addition of 20 μL of AIPH to columns 1-11 using a multichannel pipettor with mixing. The reaction was initiated similarly to the 0 test compound wells of column 12. To the 0 test compound/0 AIPH control wells was added 20 μL of PB buffer. The plate was incubated at 37° C. for 8 minutes (the reaction is linear for 10 minutes) and quenched by addition of 50 μL of AA to all wells with mixing. The plate was placed on ice for 5 minutes. Quenched assay mixtures were stable at room temperature for at least 24 hours.
Each reaction mixture was analyzed for AE-Trolox by 2D-LCMS on a Shimadzu 2010 equipped with a loading column (Shim-pack MAYI-ODS, 4.6×10 mm) and a gradient column Phenomenex Luna C18(2) column, 3 um, 4.6×50 mm. Using an automated 2-position swithching valve, samples were loaded onto the loading column by Pump C and washed for 1 minute with loading buffer. At 1 minute, the valve was switched to elution position (Position B, reversed flow through loading column) and the samples were eluted through the gradient column. The loading buffer (Buffer C) was 10% acetonitrile in water with 0.2% formic acid and the gradient buffers were water+0.2% formic acid (A buffer) and acetonitrile+0.2% formic acid (B buffer). Typical injection volumes were 30 μL.
From the TIC integration of AE-Trolox and AE-Trolox-d4, a ratio was calculated:
Ratio=AUCAE-Trolox/AUCAE-Trolox-d4
Percent inhibition of AE-Trolox oxidation (measured as disappearance of AE-Trolox) was then determined by:
% Inhibition=[1−((Ratio0−Ratiox)/(Ratioo−Ratiof))]*100

The nature of data set [3]: Peroxynitrite-carbonate radical scavenging assay (DHR probe). The note with it: for IC50: Sin-1, 37° C., 8 minutes, read-out: IC50, inhibition of oxidation of DHR probe (peroxynitrite-carbonate scavenging); for Uric Acid Equivalents: relative to uric acid. The protocol:
Inflammatory conditions are characterized by increasing concentrations of reactive oxygen species. In this study, the ability of Compound 1 to specifically scavenge peroxynitrite-carbonate radicals was determined.
To the first column of a 96-well PCR plate (0.2 mL volume) was added 160 μL of TCWS. One well of the first column would equal one IC50 determination. Typically, test compounds were assayed in duplicate, i.e. two wells of column 1 were filled with each TCWS. To the remaining wells in columns 2-11 was added 80 μL of DWS. Using a multichannel pipettor, column 1 was serially diluted in 2-fold dilutions by removing 80 μL from column 1 and transferring with mixing to column 2. Column 2 was then diluted to column 3 and so on until column 11 where 80 μL of the diluted mixture was removed and discarded. At least 2 wells of row 12 were designated as the 0 test compound control to which 80 μL of DWS was added. One well of row 12 per test compound was designated as the background control to which 80 μL of the TCWS was added.
as §1, with “Sin-1” for “AIPH”, “background” for “0 test compound/0 AIPH”, “PC” for “PB”
Each reaction mixture (20 μL) was analyzed for rhodamine 123 product by HPLC using a Phenomenex Luna C18(2) column, 3 um, 4.6×50 mm using an A buffer of water+0.1% TFA and a B buffer of acetonitrile+0.1% TFA and the following gradient method: […]
The absorbance at 280 nm was also recorded to ensure no co-elution of test compound peaks.
Initial examination of the background control samples at the highest test compound concentration were performed to ensure no co-elution of test compound peaks with the product rhodamine 123 at 4 minutes. If co-elution was observed, the compound was not tested until an appropriate HPLC method was developed to separate the product and test compound peaks. The rhodamine 123 AUC was then determined for each test compound concentration and the percent inhibition of rhodamine 123 fluorescence was then determined by the following equation:
% Inhibition=[(AUCo−AUCx)/AUCo]*100
Where AUCo is the AUC of the rhodamine 123 peak at 0 test compound concentration and AUCX is the AUC of the rhodamine 123 peak at each test compound concentration=x.
The standard error of the curve fit for the IC50 was also determined along with the Hill slope. The IC50 determined for uric acid was divided by the IC50 determined for each test compound to generate Uric Acid Equivalents, a measure of the peroxynitrite-carbonate radical scavenging ability relative to uric acid.
Uric Acid Equivalents=[…]

As to `COC(=O)/C=C/C(=O)OC` [BG-12], in the data set on MS (MS clinical studies), the “% Relapses eduction” value is 32%, the potential side effects result was “Flushing” and the “% lesion reduction” value is 69%.
On to `C[C@H]1c2cccc(O)c2C(=O)C2=C(O)[C@]3(O)C(=O)C(C(N)=O)=C(O)[C@@H](N(C)C)[C@@H]3[C@@H](O)[C@@H]21` [Doxycycline, doxycycline], for which, in the data set with E. coli, the MIC was 0.5 µg/mL (≈ 1.13 µM).
As for `CCCCCCCCc1ccc(CCC(N)(CO)CO)cc1` [Fingolimod, 2-amino-2-[2-(4-octylphenyl)ethyl]propane-1,3-diol], in data set [1], the “% Inhibition Axon Loss” value came out at 60%, the “% Inhibition Clinical Score” value was 89%, the “% Inhibition Demyelination” value amounted to 69% and the “% Inhibition Inflammation” value turned out to be 59%. In the data set with MS (MS clinical studies), the “% Relapses eduction” value was 54%; the potential side effects entry was “Infections, cancer, cardiac”; the “% lesion reduction” value is 30%.
Consider `CCN(C(=O)c1c(O)c2c(Cl)cccc2n(C)c1=O)c1ccccc1` [Laquinimod], for which, in the data set with MS (MS clinical studies), the “% Relapses eduction” value was 21%, the potential side effects result is recorded as “Increase in liver enzymes” and the “% lesion reduction” value is listed as 40%.
With `CN(C)[C@@H]1C(O)=C(C(N)=O)C(=O)[C@@]2(O)C(O)=C3C(=O)c4c(O)cccc4C[C@H]3C[C@@H]12` [Sancycline, sancycline], in data set [2], the IC50 is 369 µM, the “Percent Trolox Activity” value is recorded as 2% and the “Trolox Equivalents” value was 0.02. Besides, in data set [3], the IC50 was 66.4 µM and the “Uric Acid Equivalents” value stood at 0.19.
Regarding `C/C(O)=C(\C#N)C(=O)Nc1ccc(C(F)(F)F)cc1` [Teriflunomid], in the data set with MS (MS clinical studies), the “% Relapses eduction” value is reported as 30%; the potential side effects result is given as “Mild infections, Fatigue,”; the “% lesion reduction” value is 44%.
With `Cc1c(C)c2c(c(C)c1O)CCC(C)(C(=O)O)O2` (centres unmarked) [Trolox], in data set [2], the IC50 was determined as 9 µM, the “Percent Trolox Activity” value came out at 100% and the “Trolox Equivalents” value stood at 1.00.
As to `O=c1[nH]c(=O)c2[nH]c(=O)[nH]c2[nH]1` [Uric acid], in data set [3], the IC50 was 12.4 µM and the “Uric Acid Equivalents” value was 1.
Turning to Glatiramer [COPAXONE ®], in data set [1], the “% Inhibition Clinical Score” value is listed as 75% and the “% Inhibition Demyelination” value turned out to be 74%. For the same compound, in the data set with MS (MS clinical studies), the “% Relapses eduction” value is recorded as 30% and the “% lesion reduction” value is 65%. In the data set on MS (human, in vivo), the potential side effects entry is given as “Infection, shaking hands,”.
Natalizumab [TYSABRI ®]: in the data set with MS (MS clinical studies), the “% Relapses eduction” value is 68%; the potential side effects result is reported as “Liver damage, fatigue, fatal”; the “% lesion reduction” value is listed as 83%.
